Reference: patent publication US9572877B2 (priority 2010, dated 2017)

Assays:
[1] = test system: mouse BMDC (Bone marrow DCs); assay: Maturation of dendritic cells: surface marker expression by flow cytometry, mouse BMDC; type: cell-based; conditions: mouse BMDCs, 1 μg/ml, 37° C., 24 hrs
Description: (§1) Approximately 80 ml of blood from healthy human donors was collected and isolated peripheral blood mononuclear cells (PBMCs) with Ficoll-Paque™ gradient separation method. Monocytes were isolated from PBMCs using anti-CD14 microbeads (MACS system), seeded at […] in a 24-well plate with RPMI medium contained 10% FBS, IL-4 and GM-CSF and cultured to obtain human MDDCs. Bone marrow cells were isolated from male BALB/c mouse and cultured with medium contained IL-4 and GM-CSF for 6 days to obtain BMDCs. Then, at 7 days, CD11c^+ cells were isolated using anti-CD11c-coated magnetic beads.
(§2) Human MDDCs (Monocyte-derived DC cells) and mouse BMDC (Bone marrow DCs) were isolated with the method described above, treated respectively with LPS, MPL and CIA05 with 1 μg/ml of concentration and incubated at 37° C. for 24 hrs. After incubation, CD40, CD80 and CD86 were verified in mouse BMDCs surface, and HLA-DR, CD80 and CD86 were verified in human MDDCs by flow cytometry, respectively. […] Therefore, CIA05 may solve these problems.

[2] = test system: Human MDDCs (Monocyte-derived DC cells); assay: Maturation of dendritic cells: surface marker expression by flow cytometry, human MDDCs; type: cell-based; conditions: 1 μg/ml, 37° C., 24 hrs
Description: as §1, §2

Row | Substance | expression of DCs surface marker CD40, CD80 and CD86 [1] | expression of MDDCs surface marker HLA-DR, CD80 and CD86 [2]
1 | Monophosphoryl lipid A [MPL] | expressed with similar distribution | limited in human
2 | lipopolysaccharide [LPS] | expressed with similar distribution | –
